Where two headings read alike, the source gives them in different places.
Legend:
[1] = system: GluCer in plasma and PBMCs; assay: LTI-291-001: GluCer biomarker; type: in vivo, human; settings: single doses, vs placebo
Experimental: (§1) The pharmacodynamic evaluations consisted of a battery of CNS (NeuroCart®) assessments, including Saccadic Eye Movements, Smooth Pursuit Eye Movements, Adaptive Tracking, Body Sway, Visual Verbal Learning Test, and EEG. GluCer was measured in plasma and PBMCs as a biomarker of pharmacological effect.

[2] = LTI-291-004: safety and tolerability; type: in vivo, human
Experimental: This study was a Phase 1B, randomized, double-blind, placebo-controlled, multiple oral dose study of Compound A in 14 subjects (aged 51 to 81 years) with GBA-PD. The objectives of this study were to investigate the safety, tolerability, and PK of multiple once-daily oral administration of Compound A and to explore the accompanying pharmacodynamic changes. Subjects received once-daily oral doses of 10 mg (n=6) or 60 mg (2×30 mg capsules) (n=6) Compound A or placebo (n=2) for 28 consecutive days. PK samples were measured once on Day 7 and Day 14 and 4 times after the last dose on Day 28. Plasma concentrations were summarized at each time point, and no PK parameters were estimated. The PD evaluations included fMRI measures; FDG-PET to determine the metabolic rate of glucose in specific regions of the brain; and functional outcome measures (MDS-UPDRS Part III and the MMSE). GluCer, GluSph, and LacCer and other sphingolipids were measured in PBMCs and plasma as biomarkers of pharmacological effect.

[3] = system: GluCer, GluSph and LacCer in plasma, PBMCs and CSF; assay: LTI-291-002: glycolipid biomarkers; type: in vivo, human; settings: healthy subjects
Experimental: This study was a phase 1, randomized, double-blind, placebo-controlled, multiple ascending dose study of Compound A in 4 cohorts of middle-aged to elderly healthy participants (aged 52 to 75 years). […] A total of 39 healthy subjects were enrolled in 4 sequential cohorts. Subjects in each cohort received once-daily oral doses of 3 mg (n=7), 10 mg (n=8), 30 mg (n=8), or 60 mg (n=8) Compound A or placebo (n=8) for 14 days. Pharmacokinetic parameters were determined for each dose at Day 1, Day 7, and Day 14. Cerebrospinal fluid samples for Compound A concentrations were measured before the first dose and 4 hours after the last dose for each dose level. GluCer, glucosyl sphingosine (GluSph), and lactosyl-ceramide (LacCer) were measured in plasma, PBMCs, and CSF as biomarkers of pharmacological effects. Pharmacodynamic measurements consisted of battery of CNS (NeuroCart®) assessments including Saccadic Eye Movements, Smooth Pursuit Eye Movements, Adaptive Tracking, Body Sway, Visual Verbal Learning Test, and pharmaco-EEG.

[4] = LTI-291-001: CNS (NeuroCart) assessments; type: in vivo, human; settings: single doses 3-90 mg, healthy subjects
Experimental: as §1

clinical = settings: both, human, plasma, 60 mg; for AUC(0-t): Sinemet portion, geometric mean
Experimental: This was a Phase 1, non-randomized, open-label, 2-cohort, cross-over, DDI study in healthy male and female subjects.
In Cohort 1, a single oral dose 100 mg/25 mg levodopa-carbidopa (Sinemet®) IR was administered alone on Day 1.

[5] = BIA 28-6156-105: safety and tolerability
[6] = LTI-291-001 single ascending dose study: plasma pharmacokinetics and food effect; type: in vivo, human; settings: for Vd/F: read-out: Vz/F
Experimental: This study was a first-in-human Phase 1, randomized, double-blind, placebo-controlled, single-ascending dose study to evaluate the safety and tolerability, PK, and PD of escalating single oral doses of Compound A (3, 10, 30, and 90 mg) in 4 cohorts of healthy subjects. A total of 32 subjects received a single oral dose of Compound A (8 per dose group) and 8 subjects received placebo. The effect of food on the PK of Compound A was evaluated by administering a second single oral dose of 10 mg Compound A to the subjects in Cohort 2 on a separate occasion, after subjects had completed a high-fat breakfast. Blood samples for Compound A PK were collected up to 48 hours after each dose.

[7] = 3 mg fasted, single oral dose, geometric mean
[8] = 10 mg fasted, single oral dose, geometric mean
[9] = 10 mg fed, single oral dose, geometric mean
[10] = 10 mg, high-fat breakfast vs fasted
[11] = 30 mg fasted, single oral dose, geometric mean
[12] = 90 mg fasted, single oral dose, geometric mean
[13] = human, plasma, po, 3 mg, 3 mg fasted, single oral dose, geometric mean
[14] = human, plasma, po, 10 mg, 10 mg fasted, single oral dose, geometric mean
[15] = human, plasma, po, 10 mg, 10 mg fed, single oral dose, geometric mean
[16] = human, plasma, po, 30 mg, 30 mg fasted, single oral dose, geometric mean
[17] = human, plasma, po, 90 mg, 90 mg fasted, single oral dose, geometric mean

For `CCCCCO[C@H]1CC[C@H](NC(=O)c2cnn3c(C)cc(C)nc23)CC1` [Compound A, 5,7-dimethyl-N-((1S*,4S)-4-(pentyloxy)cyclohexyl)pyrazolo[1,5-a]pyrimidine-3-carboxamide], the “GluCer variables in PBMCs” value [1] was “Differences between treatment with Compound A and placebo were observed”, the “GluCer variables in plasma” value [1] was “No significant overall treatment effects” and the “deaths, SAEs, severe AEs” value ([2]; 10 or 60 mg daily for 28 days) was “No deaths, other SAEs, or severe AEs”. For the same compound, the “relatedness of AEs to study treatment” value ([2]; in vivo) was “None of the AEs were considered related to the study treatment”, the “vital signs, laboratory safety assessments, physical examinations, ECG parameters” value ([2]; in vivo) was “no clinically significant safety observations” and the “consistent pharmacodynamic effect on glycolipids” value ([3]; 14 days of dosing) was “not observed”. The “GluCer and LacCer variables in CSF” value ([3]; 14 days) was “sporadic, statistically significant decreases”, the “GluCer and LacCer variables in plasma and PBMCs” value ([3]; 14 days) was “Sporadic, statistically significant increases” and the “effects on CNS (Neurocart) tests” value [4] was “no dose-dependent effects”. For the same compound, the Cmax (clinical) was 1940 ng/mL, the Tmax (clinical) was 2 h and the AUC(0-t) (clinical; AUC0-24, 60 mg Compound A alone) was 22800 ng·h/mL. For the same compound, the AUC(0-t) (clinical; AUC0-t, 60 mg Compound A alone) was 22700 ng·h/mL, the “laboratory values considered related to Compound A” value ([5]; after 150 mg Compound A) was “increased ALT and increased GGT in 1 subject” and the “deaths or other SAEs” value ([5]; in vivo) was “No deaths or other SAEs”. For the same compound, the “TEAEs considered related to Compound A 150 mg” value ([5]; reported in 2 subjects) was 4 of 90 TEAEs, the AUC0-inf/dose [6, 7] was 754 ng·h/mL/mg and the Cmax/dose [6, 7] was 36.4 ng/mL/mg. The AUC0-inf/dose [6, 8] was 756 ng·h/mL/mg, the Cmax/dose [6, 8] was 32.8 ng/mL/mg and the Tmax ([6]; 10 mg fasted, single oral dose, median) was 1.01 h. The AUC0-inf/dose [6, 9] was 853 ng·h/mL/mg, the Cmax/dose [6, 9] was 23.4 ng/mL/mg and the “ratio of geometric means fed to fasting, AUC0-inf” value [6, 10] was 111%. For the same compound, the “ratio of geometric means fed to fasting, AUC0-last” value [6, 10] was 103%, the “ratio of geometric means fed to fasting, Cmax” value [6, 10] was 71.3% and the AUC0-inf/dose [6, 11] was 821 ng·h/mL/mg. It also gave a Cmax/dose [6, 11] of 32.0 ng/mL/mg, an AUC0-inf/dose [6, 12] of 704 ng·h/mL/mg and a Cmax/dose [6, 12] of 29.4 ng/mL/mg. For the same compound, the “total exposure (Cmax and AUC0-inf) versus dose” value ([6]; entire dose range 3-90 mg) was “increase in a dose proportional manner”, the half-life ([6]; human, plasma, oral, across fasted and fed groups, read-out: Geometric mean t1/2) was 1270 to 1400 min and the Tmax ([6]; human, plasma, oral, single dose 3-90 mg, fasted, medians across dose groups, read-out: median Tmax) was 1 to 3 h. For the same compound, the Tmax ([6]; human, plasma, oral, single dose 3-90 mg, fasted, minimum to maximum, read-out: Tmax, range) was 1 to 8.2 h, the AUC(0-inf) [6, 13] was 2260 ng·h/mL and the AUC(0-t) [6, 13] was 1560 ng·h/mL. The Cmax [6, 13] was 109 ng/mL, the Vd/F [6, 13] was 40.5 L and the half-life ([6]; human, plasma, po, 3 mg, 3 mg fasted, single oral dose, geometric mean, read-out: t1/2 (converted)) was 1270 min. For the same compound, the Tmax ([6]; human, plasma, po, 3 mg, 3 mg fasted, single oral dose, median, read-out: Tmax) was 1.48 h, the AUC(0-inf) [6, 14] was 7560 ng·h/mL and the AUC(0-t) [6, 14] was 5690 ng·h/mL. The Cmax [6, 14] was 328 ng/mL, the Vd/F [6, 14] was 42.4 L and the half-life ([6]; human, plasma, po, 10 mg, 10 mg fasted, single oral dose, geometric mean, read-out: t1/2 (converted)) was 1330 min. It also gave a Tmax ([6]; human, plasma, po, 10 mg, 10 mg fasted, single oral dose, median, read-out: Tmax) of 1 h, an AUC(0-inf) [6, 15] of 8530 ng·h/mL and an AUC(0-t) [6, 15] of 5860 ng·h/mL. It also gave a Cmax [6, 15] of 234 ng/mL, a Vd/F [6, 15] of 39.6 L and a half-life ([6]; human, plasma, po, 10 mg, 10 mg fed, single oral dose, geometric mean, read-out: t1/2 (converted)) of 1400 min. For the same compound, the Tmax ([6]; human, plasma, po, 10 mg, 10 mg fed, single oral dose, median, read-out: Tmax) was 8 h, the AUC(0-inf) [6, 16] was 24600 ng·h/mL and the AUC(0-t) [6, 16] was 18400 ng·h/mL. For the same compound, the Cmax [6, 16] was 961 ng/mL, the Vd/F [6, 16] was 40.8 L and the half-life ([6]; human, plasma, po, 30 mg, 30 mg fasted, single oral dose, geometric mean, read-out: t1/2 (converted)) was 1390 min. It also gave a Tmax ([6]; human, plasma, po, 30 mg, 30 mg fasted, single oral dose, median, read-out: Tmax) of 3.02 h, an AUC(0-inf) [6, 17] of 63400 ng·h/mL and an AUC(0-t) [6, 17] of 47800 ng·h/mL. It also gave a Cmax [6, 17] of 2640 ng/mL, a Vd/F [6, 17] of 47.7 L and a half-life ([6]; human, plasma, po, 90 mg, 90 mg fasted, single oral dose, geometric mean, read-out: t1/2 (converted)) of 1400 min. For the same compound, the Tmax ([6]; human, plasma, po, 90 mg, 90 mg fasted, single oral dose, median, read-out: Tmax) was 2 h.

Source: patent publication US20260240851A1, “Treatment of Parkinson's Disease in a Patient Using a Glucocerebrosidase Activator” (BIAL - R&D Investments, S.A., priority 2023, published 2026)
